This assay has as its target T1, mouse c-fms (Mus musculus, UniProt P09581).
T1 construct: Macrophage-like cell line BAC-1.2F5 which expresses c-fms as a M-CSF receptor on cell membranes; endogenous in cells; host or cells: BAC-1.2F5 mouse macrophage-like cell line
T1 sequence (P09581 20-977): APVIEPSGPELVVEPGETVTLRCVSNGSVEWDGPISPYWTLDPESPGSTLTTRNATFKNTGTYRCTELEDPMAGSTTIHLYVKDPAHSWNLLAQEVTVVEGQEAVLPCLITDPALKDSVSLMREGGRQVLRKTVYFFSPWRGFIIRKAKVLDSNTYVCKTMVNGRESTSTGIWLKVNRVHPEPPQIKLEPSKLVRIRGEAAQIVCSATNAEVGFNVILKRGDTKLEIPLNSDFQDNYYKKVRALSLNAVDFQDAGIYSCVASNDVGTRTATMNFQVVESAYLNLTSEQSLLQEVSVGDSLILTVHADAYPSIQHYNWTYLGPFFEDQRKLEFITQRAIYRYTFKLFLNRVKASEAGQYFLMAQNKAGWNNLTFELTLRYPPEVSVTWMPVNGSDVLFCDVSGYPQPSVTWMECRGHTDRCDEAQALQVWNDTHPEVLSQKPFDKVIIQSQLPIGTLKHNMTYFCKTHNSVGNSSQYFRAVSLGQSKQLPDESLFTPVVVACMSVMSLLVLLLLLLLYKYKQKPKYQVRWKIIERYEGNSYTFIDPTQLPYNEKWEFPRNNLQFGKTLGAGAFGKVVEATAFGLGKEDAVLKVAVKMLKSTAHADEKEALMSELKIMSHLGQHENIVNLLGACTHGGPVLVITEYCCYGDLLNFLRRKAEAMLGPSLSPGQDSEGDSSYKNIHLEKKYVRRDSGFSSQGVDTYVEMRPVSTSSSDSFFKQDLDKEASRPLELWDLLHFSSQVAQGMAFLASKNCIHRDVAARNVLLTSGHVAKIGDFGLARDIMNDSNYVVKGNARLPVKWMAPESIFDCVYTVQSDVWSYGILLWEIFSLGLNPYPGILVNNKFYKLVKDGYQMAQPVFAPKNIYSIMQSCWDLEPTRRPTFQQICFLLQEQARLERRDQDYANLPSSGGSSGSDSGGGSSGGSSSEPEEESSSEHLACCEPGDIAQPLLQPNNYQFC
Kind of assay: Inhibition of c-fms autophosphorylation in macrophage-like cell line BAC-1.2F5 by M-CSF stimulation (ELISA). Conditions: BAC-1.2F5 cells, human recombinant M-CSF 50 ng/ml, read-out: c-fms autophosphorylation 50% inhibitory concentration (IC50). Format: cell-based. The method, then:
Macrophage-like cell line BAC-1.2F5 which expresses c-fms as a M-CSF receptor on cell membranes (CLAUDIA M. et al., J. Cell. Physiol., 130, 420-427 (1987), “Isolation and Characterization of a Cloned Growth Factor Dependent Macrophage Cell Line, BAC1.2F5”) was cultured at 37° C. in a DMEM medium containing L-cell supernatant and 10% fetal calf serum (GIBCO BRL) in a 5% CO2 incubator until about 50 to 70% confluent. The harvested cells were inoculated into wells, each containing the same medium, in a collagen type I coat 96-well flat-bottom plate in an amount of 5.0×10^4 per well, and cultured at 37° C. for 12 hr. Thereafter, the medium was replaced with a DMEM medium containing a 0.1% fetal calf serum and cultured for 12 hr. Thereafter, a test compound dissolved in dimethyl sulfoxide was added to each well, and cells were incubated at 37° C. for one hr. Human recombinant M-CSF was added to a final concentration of 50 ng/ml, and cells were stimulated at 37° C. for 6 min. After the medium was removed, 50 μl of a solubilization buffer (20 mM HEPES (pH 7.4), 150 mM NaCl, 0.2% Triton X-100, 10% glycerol, 5 mM sodium orthovanadylate, 5 mM disodium ethylenediaminetetraacetate, and 2 mM Na4P2O7) was added thereto. The mixture was shaken at 4° C. for 2 hr to prepare a cell extract as an assay sample which was then used for an ELISA assay.
The plate for the ELISA assay was prepared as follows. Phosphate buffered saline (50 μl, pH 7.4) containing 5 μg/ml of anti-phospho-tyrosine antibody (PY20; Transduction Laboratories) was added to a microplate for ELISA (Maxisorp; purchased from NUNC), followed by standing at 4° C. overnight to be immobilized on the wells. Thereafter, each well was washed twice with 200 μl of a Ca- and Mg-free phosphate buffer containing 0.1% Tween-20 (hereinafter referred to as “PBS-T”), and 200 μl of a blocking solution (Dainippon Pharmaceutical Co. Ltd.: BlockAce) was added to each well, and the wells were then allowed to stand at room temperature for 2 hr for blocking.
Separately, phosphate buffered saline (50 μl, pH 7.4) containing 5 μg/ml of anti-phospho-tyrosine antibody (PY20; Transduction Laboratories) was added to a microplate for ELISA (Maxisorp; purchased from NUNC), followed by standing at 4° C. overnight to form a solid phase on the wells. After washing of the plate, 300 μl of a blocking solution was added, followed by standing at room temperature for 2 hr to perform blocking. After washing, the whole quantity of the cell extract was transferred to the wells, and the plate was then allowed to stand at 4° C. overnight. After washing, anti-c-fms antiserum (Upstate Biotechnology, Inc.) was allowed to react at room temperature for one hr, and, after washing, a peroxidase-labeled anti-rabbit Ig antibody (Amersham) was allowed to react at room temperature for one hr. After washing, a chromophoric substrate for peroxidase (Sumitomo Bakelite Co., Ltd.) was added thereto to initiate a reaction. After a suitable level of color development, a reaction termination solution was added to stop the reaction, and the absorbance at 450 nm was measured with a microplate reader. The c-fms phosphorylation activity for each well was determined by presuming the absorbance without the addition of the test compound and with the addition of M-CSF to be 100% c-fms phosphorylation activity and the absorbance without the addition of the test compound and M-CSF to be 0% c-fms phosphorylation activity. The concentration of the test compound was varied on several levels, the c-fms phosphorylation inhibitory rate was determined for each case, and the concentration of the test compound necessary for inhibiting 50% of c-fms phosphorylation (IC50) was calculated.

For the compound `COc1cc2nccc(Oc3ccc(NC(=O)NC(C)c4ccc(F)cc4)cc3)c2cc1OC` (stereo not drawn) [Example 1, N-{4-[(6,7-Dimethoxy-4-quinolyl)oxy]phenyl}-N′-[1-(4-fluorophenyl)ethyl]urea], the IC50 turned out to be 2.4 nM.
In the case of `COc1cc2nccc(Oc3ccc(NC(=O)NC(C)c4ccc(F)cc4)c(Cl)c3)c2cc1OC` (stereo not drawn) [Example 4, N-{2-Chloro-4-[(6,7-dimethoxy-4-quinolyl)oxy]phenyl}-N′-[1-(4-fluorophenyl)ethyl]urea], the IC50 amounted to 4 nM.
As for `COc1cc2nccc(Oc3ccc(NC(=O)N[C@@H](C)c4ccc(F)cc4)c(Cl)c3)c2cc1OC` [Example 5, N-{2-Chloro-4-[(6,7-dimethoxy-4-quinolyl)oxy]phenyl}-N′-[(1S)-1-(4-fluorophenyl)ethyl]urea], the figure is 2.2 nM.
Take `COc1cc2nccc(Oc3ccc(NC(=O)N[C@H](C)c4ccc(F)cc4)c(Cl)c3)c2cc1OC` [Example 6, N-{2-Chloro-4-[(6,7-dimethoxy-4-quinolyl)oxy]phenyl}-N′-[(1R)-1-(4-fluorophenyl)ethyl]urea]: the IC50 worked out at 6 nM.
As for `COc1cc2nccc(Oc3cc(C)c(NC(=O)NC(C)c4ccc(F)cc4)cc3C)c2cc1OC` (stereo not drawn) [Example 7, N-{4-[(6,7-Dimethoxy-4-quinolyl)oxy]-2,5-dimethylphenyl}-N′-[1-(4-fluorophenyl)ethyl]urea], the figure is 20.2 nM; as for `COc1cc2nccc(Oc3cc(C)c(NC(=O)N[C@@H](C)c4ccc(F)cc4)cc3C)c2cc1OC` [Example 8, N-{4-[(6,7-Dimethoxy-4-quinolyl)oxy]-2,5-dimethylphenyl}-N′-[(1S)-1-(4-fluorophenyl)ethyl]urea], 22.5 nM.
As for `COc1cc2nccc(Oc3cc(C)c(NC(=O)N[C@H](C)c4ccc(F)cc4)cc3C)c2cc1OC` [Example 9, N-{4-[(6,7-Dimethoxy-4-quinolyl)oxy]-2,5-dimethylphenyl}-N′-[(1R)-1-(4-fluorophenyl)ethyl]urea], the figure is 17.4 nM; as for `COc1cc2nccc(Oc3ccc(NC(=O)NC(C)c4ccc(F)cc4)cc3Cl)c2cc1OC` (stereo not drawn) [Example 10, N-{3-Chloro-4-[(6,7-dimethoxy-4-quinolyl)oxy]phenyl}-N′-[1-(4-fluorophenyl)ethyl]urea], 7.1 nM; as for `COc1cc2nccc(Oc3ccc(NC(=O)N[C@@H](C)c4ccc(F)cc4)cc3Cl)c2cc1OC` [Example 11, N-{3-Chloro-4-[(6,7-dimethoxy-4-quinolyl)oxy]phenyl}-N′-[(1S)-1-(4-fluorophenyl)ethyl]urea], 11.7 nM.
For `COc1cc2nccc(Oc3ccc(NC(=O)N[C@H](C)c4ccc(F)cc4)cc3Cl)c2cc1OC` [Example 12, N-{3-Chloro-4-[(6,7-dimethoxy-4-quinolyl)oxy]phenyl}-N′-[(1R)-1-(4-fluorophenyl)ethyl]urea] the value was 10.9 nM.
Consider `COc1cc2nccc(Oc3ccc(NC(=O)NC(C)c4ccc(F)cc4)c(C)c3)c2cc1OC` (stereo not drawn) [Example 13, N-{4-[(6,7-Dimethoxy-4-quinolyl)oxy]-2-methylphenyl}-N′-[1-(4-fluorophenyl)ethyl]urea], for which the IC50 came to 6.1 nM.
With `COc1cc2nccc(Oc3ccc(NC(=O)N[C@@H](C)c4ccc(F)cc4)c(C)c3)c2cc1OC` [Example 14, N-{4-[(6,7-Dimethoxy-4-quinolyl)oxy]-2-methylphenyl}-N′-[(1S)-1-(4-fluorophenyl)ethyl]urea], the IC50 is 13 nM.
Take `COc1cc2nccc(Oc3ccc(NC(=O)N[C@H](C)c4ccc(F)cc4)c(C)c3)c2cc1OC` [Example 15, N-{4-[(6,7-Dimethoxy-4-quinolyl)oxy]-2-methylphenyl}-N′-[(1R)-1-(4-fluorophenyl)ethyl]urea]: the IC50 is 5.7 nM.
As for `COc1cc(Oc2ccnc3cc(OC)c(OC)cc23)ccc1NC(=O)NC(C)c1ccc(F)cc1` (stereo not drawn) [Example 16, N-{4-[(6,7-Dimethoxy-4-quinolyl)oxy]-2-methoxyphenyl}-N′-[1-(4-fluorophenyl)ethyl]urea], the IC50 was found to be 2 nM.
As for `COc1cc(Oc2ccnc3cc(OC)c(OC)cc23)ccc1NC(=O)N[C@@H](C)c1ccc(F)cc1` [Example 17, N-{4-[(6,7-Dimethoxy-4-quinolyl)oxy]-2-methoxyphenyl}-N′-[(1S)-1-(4-fluorophenyl)ethyl]urea], the figure is 3.9 nM.
As for `COc1cc(Oc2ccnc3cc(OC)c(OC)cc23)ccc1NC(=O)N[C@H](C)c1ccc(F)cc1` [Example 18, N-{4-[(6,7-Dimethoxy-4-quinolyl)oxy]-2-methoxyphenyl}-N′-[(1R)-1-(4-fluorophenyl)ethyl]urea], the figure is 3.7 nM.
Regarding `COc1cc2nccc(Oc3ccc(NC(=O)NC(C)c4ccc(F)cc4)c(C(F)(F)F)c3)c2cc1OC` (stereo not drawn) [Example 19, N-[4-[(6,7-Dimethoxy-4-quinolyl)oxy]-2-(trifluoromethyl)phenyl]-N′-[1-(4-fluorophenyl)ethyl]urea], the IC50 was found to be 8.1 nM.
Take `COc1cc2nccc(Oc3ccc(NC(=O)N[C@@H](C)c4ccc(F)cc4)c(C(F)(F)F)c3)c2cc1OC` [Example 20, N-[4-[(6,7-Dimethoxy-4-quinolyl)oxy]-2-(trifluoromethyl)phenyl]-N′-[(1S)-1-(4-fluorophenyl)ethyl]urea]: the IC50 is 6.2 nM.
On to `COc1cc2nccc(Oc3ccc(NC(=O)N[C@H](C)c4ccc(F)cc4)c(C(F)(F)F)c3)c2cc1OC` [Example 21, N-[4-[(6,7-Dimethoxy-4-quinolyl)oxy]-2-(trifluoromethyl)phenyl]-N′-[(1R)-1-(4-fluorophenyl)ethyl]urea], for which the IC50 was determined as 9.8 nM.
As to `COc1cc2nccc(Oc3ccc(NC(=O)NC(C)c4ccc(F)cc4)cc3OC)c2cc1OC` (stereo not drawn) [Example 22, N-{4-[(6,7-Dimethoxy-4-quinolyl)oxy]-3-methoxyphenyl}-N′-[1-(4-fluorophenyl)ethyl]urea], the IC50 worked out at 7.7 nM.
For `COc1cc2nccc(Oc3ccc(NC(=O)N[C@@H](C)c4ccc(F)cc4)cc3OC)c2cc1OC` [Example 23, N-{4-[(6,7-Dimethoxy-4-quinolyl)oxy]-3-methoxyphenyl}-N′-[(1S)-1-(4-fluorophenyl)ethyl]urea] the value was 10.2 nM.
